Results taken from US9035085B2, “Aryl ketone compounds and compositions for delivering active agents” (EMISPHERE TECHNOLOGIES, INC., priority 2004, dated 2015).

Assay: Insulin oral delivery in rats (blood glucose)
Type: in vivo, Male Sprague-Dawley rats
Conditions: delivery agent 200 mg/kg with insulin 0.50 mg/kg, 1 ml/kg
From the text: The typical dosing and sampling protocols were as follows.

| Structure (SMILES) | % Change in Glucose (from control) [%] |
| --- | --- |
| Cc1ccc(C(=O)CCCCC(=O)O)cc1C [Compound 16] | −25.1 |
| Cc1ccc(C)c(C(=O)CCC(=O)O)c1 [Compound 19] | −28.3 |
| O=C(O)CCCC(=O)c1ccc(Oc2ccccc2)cc1 [Compound 40] | −3.9 |
| O=C(O)CCC(=O)c1ccccc1 [Compound 1, 4-Oxo-4-phenyl-butyric acid] | −30.7 |
| COc1ccc(C(=O)CCC(=O)O)cc1 [Compound 5, 4-(4-Methoxy-phenyl)-4-oxo-butyric acid] | −12.1 |
| O=C(O)CCC(=O)c1cc(Cl)ccc1Cl [Compound 22] | −16.3 |
| O=C(O)CCCC(=O)c1ccccc1 [Compound 8] | −1.3 |
| O=C(O)CCCCCC(=O)c1ccccc1 [Compound 28] | −26.4 |
| Cc1ccc(C(=O)CCC(=O)O)cc1 [Compound 38] | −26.9 |
| O=C(O)CCCC(=O)c1ccc(Cl)cc1 [Compound 36] | −31.9 |
| Cc1ccc(C(=O)CCC(=O)O)cc1C [Compound 17] | −9.5 |
| O=C(O)CCCCC(=O)c1cc(Cl)ccc1Cl [Compound 21] | −40.8 |
| CCc1ccc(C(=O)CCC(=O)O)cc1 [Compound 29] | −35.4 |
| CCCCCCOc1ccc(C(=O)CCC(=O)O)cc1 [Compound 34] | 9.4 |
| O=C(O)CCCCCC(=O)c1cccc(Oc2ccccc2)c1 [Compound 42] | −13.8 |
| O=C(O)CCC(=O)c1cc(F)ccc1F [Compound 35] | −11.8 |
| COc1c(C)cc(C(=O)CCCCC(=O)O)cc1C [Compound 10] | −13.5 |
| COc1ccc(C(=O)CCCCC(=O)O)cc1 [Compound 14] | −2.0 |
| O=C(O)CCC(=O)c1ccc(F)cc1F [Compound 30] | −10.5 |
| O=C(O)CCCCCCC(=O)c1ccccc1 [Compound 25] | −20.8 |
| O=C(O)CCCCC(=O)c1cc(F)cc(F)c1 [Compound 37] | −39.0 |
| COc1ccc(C(=O)CCCC(=O)O)cc1 [Compound 6, 5-(4-Methoxy-phenyl)-5-oxo-pentanoic acid] | −18.3 |
| COc1ccccc1C(=O)CCC(=O)O [Compound 12] | −2.3 |
| O=C(O)CCCC(=O)c1cccc(Oc2ccccc2)c1 [Compound 41] | −16.5 |
| Cc1cc(C)cc(C(=O)CCCCCCC(=O)O)c1 [Compound 20] | −6.6 |
| Cc1cc(C)cc(C(=O)CCCCC(=O)O)c1 [Compound 23] | −7.5 |
